# Measured values as given in ChEMBL document CHEMBL1135219, “Anti-HIV-1 activities and pharmacokinetics of new arylpiperazinyl fluoroquinolones” (Bioorg Med Chem Lett, 2002).
# Tested on: not listed separately
# Assay: Half-life period after intravenous administration in cynomolgus monkeys
# Type: ADME, organism-based
# Settings: cercopithecidae, in vivo
row,Compound,half-life
1,Cn1cc(C(=O)O)c(=O)c2cc(F)c(N3CCN(c4ccccn4)CC3)c(C(F)(F)F)c21,528 min
2,Cn1cc(C(=O)O)c(=O)c2cc(F)c(N3CCN(c4ncccn4)CC3)c(C(F)(F)F)c21,456 min
3,O=C(O)c1cn(C2CC2)c2c(C(F)(F)F)c(N3CCN(c4ccccn4)CC3)c(F)cc2c1=O,42 min

# Tested on: not listed separately
# Assay: Half-life period after oral administration in cynomolgus monkeys
# Type: ADME, organism-based
# Settings: cercopithecidae, in vivo
row,Compound,half-life
1,Cn1cc(C(=O)O)c(=O)c2cc(F)c(N3CCN(c4ccccn4)CC3)c(C(F)(F)F)c21,450 min
2,Cn1cc(C(=O)O)c(=O)c2cc(F)c(N3CCN(c4ncccn4)CC3)c(C(F)(F)F)c21,522 min

# Tested on: not listed separately
# Assay: Area under curve was determined using trapezoidal rule after intravenous administration in cynomolgus monkeys
# Type: ADME
# Settings: cercopithecidae, in vivo
row,Compound,AUC
1,Cn1cc(C(=O)O)c(=O)c2cc(F)c(N3CCN(c4ccccn4)CC3)c(C(F)(F)F)c21,18400 ng·h/mL
2,Cn1cc(C(=O)O)c(=O)c2cc(F)c(N3CCN(c4ncccn4)CC3)c(C(F)(F)F)c21,16400 ng·h/mL
3,O=C(O)c1cn(C2CC2)c2c(C(F)(F)F)c(N3CCN(c4ccccn4)CC3)c(F)cc2c1=O,3500 ng·h/mL

# Tested on: not listed separately
# Assay: Area under curve was determined using trapezoidal rule after oral administration in cynomolgus monkeys
# Type: ADME
# Settings: cercopithecidae, in vivo
row,Compound,AUC
1,Cn1cc(C(=O)O)c(=O)c2cc(F)c(N3CCN(c4ccccn4)CC3)c(C(F)(F)F)c21,17200 ng·h/mL
2,Cn1cc(C(=O)O)c(=O)c2cc(F)c(N3CCN(c4ncccn4)CC3)c(C(F)(F)F)c21,18400 ng·h/mL

# Tested on: not listed separately
# Assay: Bioavailability was reported in cynomolgus monkeys (ratio of AUC in oral administration to that of intravenous administration)
# Type: ADME, organism-based
# Settings: cercopithecidae, in vivo, read-out: BA
row,Compound,bioavailability
1,Cn1cc(C(=O)O)c(=O)c2cc(F)c(N3CCN(c4ccccn4)CC3)c(C(F)(F)F)c21,93.5%
2,Cn1cc(C(=O)O)c(=O)c2cc(F)c(N3CCN(c4ncccn4)CC3)c(C(F)(F)F)c21,112%
3,O=C(O)c1cn(C2CC2)c2c(C(F)(F)F)c(N3CCN(c4ccccn4)CC3)c(F)cc2c1=O,4.3%

# Tested on: not listed separately
# Assay: The time for peak concentration value after oral administration in cynomolgus monkeys
# Type: ADME, organism-based
# Settings: cercopithecidae, in vivo
row,Compound,Tmax
1,Cn1cc(C(=O)O)c(=O)c2cc(F)c(N3CCN(c4ccccn4)CC3)c(C(F)(F)F)c21,2 h
2,Cn1cc(C(=O)O)c(=O)c2cc(F)c(N3CCN(c4ncccn4)CC3)c(C(F)(F)F)c21,4 h
3,O=C(O)c1cn(C2CC2)c2c(C(F)(F)F)c(N3CCN(c4ccccn4)CC3)c(F)cc2c1=O,2 h

# Tested on: not listed separately
# Assay: Mean residence time was determined after intravenous administration in cynomolgus monkeys
# Type: ADME, organism-based
# Settings: cercopithecidae, in vivo
row,Compound,MRT
1,Cn1cc(C(=O)O)c(=O)c2cc(F)c(N3CCN(c4ccccn4)CC3)c(C(F)(F)F)c21,9.3 h
2,Cn1cc(C(=O)O)c(=O)c2cc(F)c(N3CCN(c4ncccn4)CC3)c(C(F)(F)F)c21,8.2 h
3,O=C(O)c1cn(C2CC2)c2c(C(F)(F)F)c(N3CCN(c4ccccn4)CC3)c(F)cc2c1=O,0.8 h

# Tested on: not listed separately
# Assay: The peak concentration (Cmax) value after oral administration in cynomolgus monkeys
# Type: ADME, organism-based
# Parameters: route oral
# Settings: cercopithecidae, in vivo
row,Compound,Cmax
1,Cn1cc(C(=O)O)c(=O)c2cc(F)c(N3CCN(c4ccccn4)CC3)c(C(F)(F)F)c21,1400 ng/mL
2,Cn1cc(C(=O)O)c(=O)c2cc(F)c(N3CCN(c4ncccn4)CC3)c(C(F)(F)F)c21,1500 ng/mL
3,O=C(O)c1cn(C2CC2)c2c(C(F)(F)F)c(N3CCN(c4ccccn4)CC3)c(F)cc2c1=O,100 ng/mL

# Tested on: not listed separately
# Assay: The distribution volume after intravenous administration in cynomolgus monkeys
# Type: ADME, organism-based
# Settings: cercopithecidae, in vivo, read-out: Vdss
row,Compound,Vd
1,Cn1cc(C(=O)O)c(=O)c2cc(F)c(N3CCN(c4ccccn4)CC3)c(C(F)(F)F)c21,0.509 L/kg
2,Cn1cc(C(=O)O)c(=O)c2cc(F)c(N3CCN(c4ncccn4)CC3)c(C(F)(F)F)c21,0.491 L/kg
3,O=C(O)c1cn(C2CC2)c2c(C(F)(F)F)c(N3CCN(c4ccccn4)CC3)c(F)cc2c1=O,0.225 L/kg

# Tested on: not listed separately
# Assay: Peak concentration (Cmax) at a dose of 10 mg/kg in rats
# Type: ADME, organism-based
# Parameters: dose 10 mg/kg
# Settings: rat, in vivo
row,Compound,Cmax
1,COc1ccccc1N1CCN(c2c(F)cc3c(=O)c(C(=O)O)cn(C)c3c2C(F)(F)F)CC1,2770 ng/mL

# Tested on: not listed separately
# Assay: Peak concentration (Cmax) at a dose of 20 mg/kg in rats
# Type: ADME, organism-based
# Parameters: dose 20 mg/kg
# Settings: rat, in vivo
row,Compound,Cmax
1,CCn1cc(C(=O)O)c(=O)c2cc(F)c(N3CCN(c4ccccn4)CC3)c(C(F)(F)F)c21,6740 ng/mL
2,Cn1cc(C(=O)O)c(=O)c2cc(F)c(N3CCN(c4ccccn4)CC3)c(C(F)(F)F)c21,26400 ng/mL
3,CCn1cc(C(=O)O)c(=O)c2cc(F)c(N3CCN(c4ncccn4)CC3)c(C(F)(F)F)c21,5460 ng/mL
4,Cn1cc(C(=O)O)c(=O)c2cc(F)c(N3CCN(c4ncccn4)CC3)c(C(F)(F)F)c21,58500 ng/mL
5,O=C(O)c1cn(C2CC2)c2c(C(F)(F)F)c(N3CCN(c4ccccn4)CC3)c(F)cc2c1=O,5830 ng/mL
6,COc1ccccc1N1CCN(c2c(F)cc3c(=O)c(C(=O)O)cn(C4CC4)c3c2C(F)(F)F)CC1,3460 ng/mL
7,O=C(O)c1cn(C2CC2)c2c(C(F)(F)F)c(N3CCN(c4ncccn4)CC3)c(F)cc2c1=O,7020 ng/mL

# Tested on: not listed separately
# Assay: The total clearance was determined after intravenous administration in cynomolgus monkeys
# Type: ADME, organism-based
# Settings: cercopithecidae, in vivo, read-out: CLtotal (converted)
row,Compound,clearance
1,Cn1cc(C(=O)O)c(=O)c2cc(F)c(N3CCN(c4ccccn4)CC3)c(C(F)(F)F)c21,0.928 mL/min/kg
2,Cn1cc(C(=O)O)c(=O)c2cc(F)c(N3CCN(c4ncccn4)CC3)c(C(F)(F)F)c21,1.08 mL/min/kg
3,O=C(O)c1cn(C2CC2)c2c(C(F)(F)F)c(N3CCN(c4ccccn4)CC3)c(F)cc2c1=O,4.89 mL/min/kg

# Tested on: not listed separately
# Assay: Time for peak concentration (tmax) at a dose of 20 mg/kg in rats
# Type: ADME, organism-based
# Parameters: dose 20 mg/kg
# Settings: rat, in vivo
row,Compound,Tmax
1,CCn1cc(C(=O)O)c(=O)c2cc(F)c(N3CCN(c4ccccn4)CC3)c(C(F)(F)F)c21,2 h
2,Cn1cc(C(=O)O)c(=O)c2cc(F)c(N3CCN(c4ccccn4)CC3)c(C(F)(F)F)c21,1 h
3,CCn1cc(C(=O)O)c(=O)c2cc(F)c(N3CCN(c4ncccn4)CC3)c(C(F)(F)F)c21,2 h
4,Cn1cc(C(=O)O)c(=O)c2cc(F)c(N3CCN(c4ncccn4)CC3)c(C(F)(F)F)c21,1 h
5,O=C(O)c1cn(C2CC2)c2c(C(F)(F)F)c(N3CCN(c4ccccn4)CC3)c(F)cc2c1=O,2 h
6,COc1ccccc1N1CCN(c2c(F)cc3c(=O)c(C(=O)O)cn(C4CC4)c3c2C(F)(F)F)CC1,4 h
7,O=C(O)c1cn(C2CC2)c2c(C(F)(F)F)c(N3CCN(c4ncccn4)CC3)c(F)cc2c1=O,1 h

# Tested on: MT4
# Assay: The compound was tested against HIV-1(IIIB) replication on the inhibition of virus -induced cytopathogenicity in MT-4 cells
# Type: functional, cell-based
# Settings: Homo sapiens
row,Compound,IC50
1,COc1ccccc1N1CCN(c2c(F)cc3c(=O)c(C(=O)O)cn(C)c3c2C(F)F)CC1,350 nM
2,CCn1cc(C(=O)O)c(=O)c2cc(F)c(N3CCN(c4ccccn4)CC3)c(C(F)F)c21,890 nM
3,O=C(O)c1cn(C2CC2)c2c(C(F)F)c(N3CCN(c4ncccn4)CC3)c(F)cc2c1=O,3700 nM
4,O=C(O)c1cn(C2CC2)c2c(C(F)F)c(N3CCN(c4ccccn4)CC3)c(F)cc2c1=O,490 nM
5,Cn1cc(C(=O)O)c(=O)c2cc(F)c(N3CCN(c4ccccn4)CC3)c(C(F)F)c21,240 nM
6,CCn1cc(C(=O)O)c(=O)c2cc(F)c(N3CCN(c4ccccc4OC)CC3)c(C(F)F)c21,220 nM

# Tested on: MT4
# Assay: The compound was tested for cytotoxicity against mock-infected MT-4 cells
# Type: functional
# Settings: Homo sapiens
row,Compound,CC50
1,COc1ccccc1N1CCN(c2c(F)cc3c(=O)c(C(=O)O)cn(C)c3c2C(F)F)CC1,11 µM
2,CCn1cc(C(=O)O)c(=O)c2cc(F)c(N3CCN(c4ccccn4)CC3)c(C(F)F)c21,4.1 µM
3,O=C(O)c1cn(C2CC2)c2c(C(F)F)c(N3CCN(c4ncccn4)CC3)c(F)cc2c1=O,21 µM
4,O=C(O)c1cn(C2CC2)c2c(C(F)F)c(N3CCN(c4ccccn4)CC3)c(F)cc2c1=O,9.2 µM
5,Cn1cc(C(=O)O)c(=O)c2cc(F)c(N3CCN(c4ccccn4)CC3)c(C(F)F)c21,9.2 µM
6,CCn1cc(C(=O)O)c(=O)c2cc(F)c(N3CCN(c4ccccc4OC)CC3)c(C(F)F)c21,8.3 µM

# Tested on: MT4
# Assay: The compound was tested for cytotoxicity against mock-infected MT-4 cells.
# Type: functional
# Settings: Homo sapiens
row,Compound,CC50
1,CCn1cc(C(=O)O)c(=O)c2cc(F)c(N3CCN(c4ccccn4)CC3)c(C(F)(F)F)c21,370 nM
2,Cn1cc(C(=O)O)c(=O)c2cc(F)c(N3CCN(c4ccccn4)CC3)c(C(F)(F)F)c21,220 nM
3,CCn1cc(C(=O)O)c(=O)c2cc(F)c(N3CCN(c4ncccn4)CC3)c(C(F)(F)F)c21,1500 nM
4,Cn1cc(C(=O)O)c(=O)c2cc(F)c(N3CCN(c4ncccn4)CC3)c(C(F)(F)F)c21,890 nM
5,CCn1cc(C(=O)O)c(=O)c2cc(F)c(N3CCN(c4ccccc4OC)CC3)c(C(F)(F)F)c21,750 nM
6,COc1ccccc1N1CCN(c2c(F)cc3c(=O)c(C(=O)O)cn(C4CC4)c3c2C(F)F)CC1,12000 nM
7,O=C(O)c1cn(C2CC2)c2c(C(F)(F)F)c(N3CCN(c4ccccn4)CC3)c(F)cc2c1=O,1400 nM
8,CCn1cc(C(=O)O)c(=O)c2cc(F)c(N3CCN(c4ncccn4)CC3)c(C(F)F)c21,20000 nM
9,Cn1cc(C(=O)O)c(=O)c2cc(F)c(N3CCN(c4ncccn4)CC3)c(C(F)F)c21,13000 nM
10,COc1ccccc1N1CCN(c2c(F)cc3c(=O)c(C(=O)O)cn(C4CC4)c3c2C(F)(F)F)CC1,870 nM
11,O=C(O)c1cn(C2CC2)c2c(C(F)(F)F)c(N3CCN(c4ncccn4)CC3)c(F)cc2c1=O,5200 nM
12,COc1ccccc1N1CCN(c2c(F)cc3c(=O)c(C(=O)O)cn(C)c3c2C(F)(F)F)CC1,500 nM

# Tested on: MT4
# Assay: The compound was tested against HIV-1(IIIB) replication on the inhibition of virus -induced cytopathogenicity in MT-4 cells.
# Type: functional, cell-based
# Settings: Homo sapiens
row,Compound,IC50
1,CCn1cc(C(=O)O)c(=O)c2cc(F)c(N3CCN(c4ccccn4)CC3)c(C(F)(F)F)c21,26 nM
2,Cn1cc(C(=O)O)c(=O)c2cc(F)c(N3CCN(c4ccccn4)CC3)c(C(F)(F)F)c21,14 nM
3,CCn1cc(C(=O)O)c(=O)c2cc(F)c(N3CCN(c4ncccn4)CC3)c(C(F)(F)F)c21,95 nM
4,Cn1cc(C(=O)O)c(=O)c2cc(F)c(N3CCN(c4ncccn4)CC3)c(C(F)(F)F)c21,49 nM
5,CCn1cc(C(=O)O)c(=O)c2cc(F)c(N3CCN(c4ccccc4OC)CC3)c(C(F)(F)F)c21,110 nM
6,COc1ccccc1N1CCN(c2c(F)cc3c(=O)c(C(=O)O)cn(C4CC4)c3c2C(F)F)CC1,560 nM
7,O=C(O)c1cn(C2CC2)c2c(C(F)(F)F)c(N3CCN(c4ccccn4)CC3)c(F)cc2c1=O,65 nM
8,CCn1cc(C(=O)O)c(=O)c2cc(F)c(N3CCN(c4ncccn4)CC3)c(C(F)F)c21,470 nM
9,Cn1cc(C(=O)O)c(=O)c2cc(F)c(N3CCN(c4ncccn4)CC3)c(C(F)F)c21,310 nM
10,COc1ccccc1N1CCN(c2c(F)cc3c(=O)c(C(=O)O)cn(C4CC4)c3c2C(F)(F)F)CC1,69 nM
11,O=C(O)c1cn(C2CC2)c2c(C(F)(F)F)c(N3CCN(c4ncccn4)CC3)c(F)cc2c1=O,190 nM
12,COc1ccccc1N1CCN(c2c(F)cc3c(=O)c(C(=O)O)cn(C)c3c2C(F)(F)F)CC1,54 nM

# Tested on: not listed separately
# Assay: Time for peak concentration (tmax) at a dose of 10 mg/kg in rats
# Type: ADME, organism-based
# Parameters: dose 10 mg/kg
# Settings: rat, in vivo
row,Compound,Tmax
1,COc1ccccc1N1CCN(c2c(F)cc3c(=O)c(C(=O)O)cn(C)c3c2C(F)(F)F)CC1,2 h
